Measurements: patent US20240382629A1, “HETEROBIVALENT AND HOMOBIVALENT AGENTS TARGETING FIBROBLAST ACTIVATION PROTEIN ALPHA AND/OR PROSTATE-SPECIFIC MEMBRANE ANTIGEN” (The Johns Hopkins University, priority 2021, published 2024)
Values joined by “and” are separate entries in the source; they are usually repeats but may differ in a detail not shown here. Equal values may be shown once.

Assay: Biodistribution of representative compounds ([^18F]Sri-07-56, [^18F]Sri-07-52, [^18F]JHU1221823, [^18F]FAPI-74), tissue % ID/g with carrier or blocker
Format: in vivo, mouse
Conditions: 20 μCi per mouse; for Bladder % ID/g / Blood % ID/g / Brain % ID/g / Fat % ID/g / Femur % ID/g / Heart % ID/g / Kidney % ID/g / Large intestine % ID/g / Liver % ID/g / Lung % ID/g / Muscle % ID/g / Pancreas % ID/g / Salivery gland % ID/g / Small intestine % ID/g / Spleen % ID/g / Stomach % ID/g / Tumor % ID/g: individual mice
From the text: Biodistribution of Representative Compounds

Question: Which “Bladder % ID/g Mean” value (60 min) does the source give for N#C[C@@H]1CCCN1C(=O)CNC(=O)c1ccnc2ccc(OCCCNC(=O)CCOCCOCCOCCOCCNC(=O)[C@H](CCCCNC(=O)c3ccc([18F])nc3)NC(=O)CN3CCN(CC(=O)O)CCN(CC(=O)O)CCN(CC(=O)O)CC3)cc12 [[^18F]JHU1221823] here?
Answer: 4.53 % ID/g

Question: What about the “Blood % ID/g Mean” value (60 min) of the same compound?
Answer: 9.54 % ID/g

Question: And the “Brain % ID/g Mean” value (60 min)?
Answer: 0.22 % ID/g

Question: And the “Fat % ID/g Mean” value (60 min)?
Answer: 1.07 % ID/g

Question: What about the “Femur % ID/g Mean” value (60 min) of the same compound?
Answer: 2.83 % ID/g

Question: And the “Heart % ID/g Mean” value (60 min)?
Answer: 4.65 % ID/g

Question: What about the “Kidney % ID/g Mean” value (60 min) of the same compound?
Answer: 2.73 % ID/g

Question: What about the “Large intestine % ID/g Mean” value (60 min) of the same compound?
Answer: 1.49 % ID/g

Question: And the “Liver % ID/g Mean” value (60 min)?
Answer: 2.99 % ID/g

Question: And the “Lung % ID/g Mean” value (60 min)?
Answer: 5.72 % ID/g

Question: What about the “Muscle % ID/g Mean” value (60 min) of the same compound?
Answer: 1.78 % ID/g

Question: And the “Pancreas % ID/g Mean” value (60 min)?
Answer: 2.14 % ID/g

Question: What about the “Salivary gland % ID/g Mean” value (60 min) of the same compound?
Answer: 6.93 % ID/g

Question: And the “Small intestine % ID/g Mean” value (60 min)?
Answer: 3.02 % ID/g

Question: What about the “Spleen % ID/g Mean” value (60 min) of the same compound?
Answer: 2.15 % ID/g

Question: And the “Stomach % ID/g Mean” value (60 min)?
Answer: 1.14 % ID/g

Question: And the “Tumor % ID/g Mean” value (60 min)?
Answer: 5.71 % ID/g

Question: What about the “Bladder % ID/g” value (60 min) of the same compound?
Answer: 6.41 % ID/g and 2.64 % ID/g

Question: And the “Blood % ID/g” value (60 min)?
Answer: 9.28 % ID/g and 9.80 % ID/g

Question: And the “Brain % ID/g” value (60 min)?
Answer: 0.23 % ID/g and 0.22 % ID/g

Question: What about the “Fat % ID/g” value (60 min) of the same compound?
Answer: 0.47 % ID/g and 1.68 % ID/g

Question: And the “Femur % ID/g” value (60 min)?
Answer: 2.55 % ID/g and 3.11 % ID/g

Question: And the “Heart % ID/g” value (60 min)?
Answer: 4.31 % ID/g and 4.98 % ID/g

Question: What about the “Kidney % ID/g” value (60 min) of the same compound?
Answer: 2.70 % ID/g and 2.77 % ID/g

Question: And the “Large intestine % ID/g” value (60 min)?
Answer: 1.29 % ID/g and 1.69 % ID/g

Question: What about the “Liver % ID/g” value (60 min) of the same compound?
Answer: 2.68 % ID/g and 3.29 % ID/g

Question: And the “Lung % ID/g” value (60 min)?
Answer: 5.53 % ID/g and 5.91 % ID/g

Question: What about the “Muscle % ID/g” value (60 min) of the same compound?
Answer: 1.79 % ID/g and 1.78 % ID/g

Question: And the “Pancreas % ID/g” value (60 min)?
Answer: 1.62 % ID/g and 2.66 % ID/g

Question: And the “Salivery gland % ID/g” value (60 min)?
Answer: 7.44 % ID/g and 6.43 % ID/g

Question: What about the “Small intestine % ID/g” value (60 min) of the same compound?
Answer: 2.59 % ID/g and 3.46 % ID/g

Question: What about the “Spleen % ID/g” value (60 min) of the same compound?
Answer: 1.86 % ID/g and 2.43 % ID/g

Question: What about the “Stomach % ID/g” value (60 min) of the same compound?
Answer: 0.84 % ID/g and 1.45 % ID/g

Question: What about the “Tumor % ID/g” value (60 min) of the same compound?
Answer: 4.35 % ID/g and 7.05 % ID/g

Question: And the “Bladder % ID/g Mean” value (120 min)?
Answer: 1.92 % ID/g

Question: And the “Blood % ID/g Mean” value (120 min)?
Answer: 6.28 % ID/g

Question: What about the “Brain % ID/g Mean” value (120 min) of the same compound?
Answer: 0.18 % ID/g

Question: And the “Fat % ID/g Mean” value (120 min)?
Answer: 1.45 % ID/g

Question: What about the “Femur % ID/g Mean” value (120 min) of the same compound?
Answer: 1.61 % ID/g

Question: What about the “Heart % ID/g Mean” value (120 min) of the same compound?
Answer: 3.49 % ID/g

Question: And the “Kidney % ID/g Mean” value (120 min)?
Answer: 1.93 % ID/g

Question: And the “Large intestine % ID/g Mean” value (120 min)?
Answer: 1.38 % ID/g

Question: What about the “Liver % ID/g Mean” value (120 min) of the same compound?
Answer: 2.18 % ID/g

Question: And the “Lung % ID/g Mean” value (120 min)?
Answer: 3.65 % ID/g

Question: And the “Muscle % ID/g Mean” value (120 min)?
Answer: 1.16 % ID/g

Question: What about the “Pancreas % ID/g Mean” value (120 min) of the same compound?
Answer: 4.67 % ID/g

Question: And the “Salivary gland % ID/g Mean” value (120 min)?
Answer: 8.11 % ID/g

Question: And the “Small intestine % ID/g Mean” value (120 min)?
Answer: 2.04 % ID/g

Question: And the “Spleen % ID/g Mean” value (120 min)?
Answer: 1.58 % ID/g

Question: And the “Stomach % ID/g Mean” value (120 min)?
Answer: 1.24 % ID/g

Question: And the “Tumor % ID/g Mean” value (120 min)?
Answer: 2.91 % ID/g

Question: What about the “Bladder % ID/g” value (120 min) of the same compound?
Answer: 2.63 % ID/g and 1.21 % ID/g

Question: What about the “Blood % ID/g” value (120 min) of the same compound?
Answer: 5.77 % ID/g and 6.78 % ID/g

Question: What about the “Brain % ID/g” value (120 min) of the same compound?
Answer: 0.19 % ID/g and 0.17 % ID/g

Question: What about the “Fat % ID/g” value (120 min) of the same compound?
Answer: 0.97 % ID/g and 1.93 % ID/g

Question: And the “Femur % ID/g” value (120 min)?
Answer: 1.71 % ID/g and 1.91 % ID/g

Question: What about the “Heart % ID/g” value (120 min) of the same compound?
Answer: 3.18 % ID/g and 3.79 % ID/g

Question: What about the “Kidney % ID/g” value (120 min) of the same compound?
Answer: 1.61 % ID/g and 2.24 % ID/g

Question: And the “Large intestine % ID/g” value (120 min)?
Answer: 1.40 % ID/g and 1.36 % ID/g

Question: What about the “Liver % ID/g” value (120 min) of the same compound?
Answer: 1.94 % ID/g and 2.42 % ID/g

Question: What about the “Lung % ID/g” value (120 min) of the same compound?
Answer: 3.13 % ID/g and 4.16 % ID/g

Question: And the “Muscle % ID/g” value (120 min)?
Answer: 1.18 % ID/g and 1.15 % ID/g

Question: What about the “Pancreas % ID/g” value (120 min) of the same compound?
Answer: 4.03 % ID/g and 5.32 % ID/g

Question: What about the “Salivery gland % ID/g” value (120 min) of the same compound?
Answer: 5.17 % ID/g and 11.05 % ID/g

Question: And the “Small intestine % ID/g” value (120 min)?
Answer: 1.88 % ID/g and 2.21 % ID/g

Question: And the “Spleen % ID/g” value (120 min)?
Answer: 1.49 % ID/g and 1.67 % ID/g

Question: What about the “Stomach % ID/g” value (120 min) of the same compound?
Answer: 1.11 % ID/g and 1.37 % ID/g

Question: What about the “Tumor % ID/g” value (120 min) of the same compound?
Answer: 2.88 % ID/g and 2.94 % ID/g
